This is an account of results in patent EP0511845B1, “Pesticidal 1-aryl-5-(substituted alkylideneimino)-pyrazoles” (AVENTIS CROPSCIENCE S.A., priority 1991, dated 1992).

What all share (assay type): in vivo
For one experiment, the system named is Schizaphis graminum. Kind of experiment: Greenbug on sorghum - systemic evaluation (soil drench). Conditions: systemic via root uptake, soil drench at soil concentrations of the protocols (10.0 or 20 ppm). How it is done: (§1) For southern root-knot nematod and systemic tests for southern armyworm, cotton aphid, tobacco budworm and greenbug, a stock solution or suspension was prepared by adding 15 mg of the test compound to 250 mg of dimethylformamide, 1250 mg of acetone and 3 mg of the emulsifier blend referenced above. Water was then added to provide a test compound concentration of 150 ppm. When necessary, sonication was provided to insure complete dispersion. Cotton aphid and tobacco budworm (on cotton) and greenbug and tobacco budworm (on sorghum) - systemic evaluation: A 7.0 ml aliquot of the 150 ppm nematode test solution was applied to deliver the equivalent of 10.0 ppm soil concentration dose as a drench to 6 cm pots containing cotton and sorghum plants. The cotton plants were previously infested with cotton aphids about two days before treatment and greenbug one day before treatment. After holding the plants about three days, the plants were rated for aphid activity. Again at six days, the plants were rated for aphid activity and the cotton aphids and greenbugs were counted and mortality was assessed. Portions of the cotton and sorghum foliage were excised, placed in separate plastic containers, and infested with second instar larvae of tobacco budworm. The potted plants were dipped in sulfotepp to kill the remaining aphids and returned to the greenhouse for regrowth. Thirteen days after treatment, the remaining foliage was excised and fed to tobacco budworms. Mortality was assessed six days after infestation. Cotton aphid and southern armyworm (on cotton) and greenbug and southern armyworm (on sorghum) - systemic evaluation: A stock solution or suspension was prepared to deliver 5 ml of a 20 ppm soil concentration dose (and subsequent dilutions) as a drench to 6 cm pots containing cotton and sorghum plants. The cotton plants were previously infested with cotton aphids about two days before treatment and greenbug one day before treatment. After holding the plants about three days, the plants were rated for aphid activity. Again at six days, the plants were rated for aphid activity and the cotton aphids and greenbugs were counted and mortality was assessed. Portions of the cotton and sorghum foliage were excised, placed in separate plastic containers, and infested with second instar larvae of southern armyworms. The potted plants were dipped in sulfotepp to kill the remaining aphids and returned to the greenhouse for regrowth. Thirteen days after treatment the remaining foliage was excised and fed to southern armyworm. Mortality was assessed six days after infestation.

The next experiment concerns Aphis gossypii. Put plainly: Cotton aphid on cotton - systemic evaluation (soil drench). As to conditions: systemic via root uptake, soil drench at soil concentrations of the protocols (10.0 or 20 ppm). How it is done: as §1
In experiment [1] the test system is Heliothis virescens. Kind of experiment: Tobacco budworm on sorghum - systemic evaluation (soil drench). Conditions: systemic via root uptake, 10.0 ppm soil concentration. As for the experimental part:
For southern root-knot nematod and systemic tests for southern armyworm, cotton aphid, tobacco budworm and greenbug, a stock solution or suspension was prepared by adding 15 mg of the test compound to 250 mg of dimethylformamide, 1250 mg of acetone and 3 mg of the emulsifier blend referenced above. Water was then added to provide a test compound concentration of 150 ppm. When necessary, sonication was provided to insure complete dispersion. Cotton aphid and tobacco budworm (on cotton) and greenbug and tobacco budworm (on sorghum) - systemic evaluation: A 7.0 ml aliquot of the 150 ppm nematode test solution was applied to deliver the equivalent of 10.0 ppm soil concentration dose as a drench to 6 cm pots containing cotton and sorghum plants. The cotton plants were previously infested with cotton aphids about two days before treatment and greenbug one day before treatment. After holding the plants about three days, the plants were rated for aphid activity. Again at six days, the plants were rated for aphid activity and the cotton aphids and greenbugs were counted and mortality was assessed. Portions of the cotton and sorghum foliage were excised, placed in separate plastic containers, and infested with second instar larvae of tobacco budworm. The potted plants were dipped in sulfotepp to kill the remaining aphids and returned to the greenhouse for regrowth. Thirteen days after treatment, the remaining foliage was excised and fed to tobacco budworms. Mortality was assessed six days after infestation.

In another experiment the test system is Meloidogyne incognita. Kind of experiment: Southern root-knot nematode test (gall rating on tomato). As to conditions: effective dose to provide a 3 gall rating (light galling). How it is done: For southern root-knot nematod and systemic tests for southern armyworm, cotton aphid, tobacco budworm and greenbug, a stock solution or suspension was prepared by adding 15 mg of the test compound to 250 mg of dimethylformamide, 1250 mg of acetone and 3 mg of the emulsifier blend referenced above. Water was then added to provide a test compound concentration of 150 ppm. When necessary, sonication was provided to insure complete dispersion.
Southern root-knot nematode: Infected roots of tomato plants, containing egg masses of southern root-knot nematode, were removed from a stock culture and cleaned of soil by shaking and washing with tap water. The nematode eggs were separated from the root tissue and rinsed with water. Samples of the egg suspension were placed on a fine screen over a receiving bowl, in which the water level was adjusted to be in contact with the screen. From the bowl, juveniles were collected on a fine screen. […] At the termination of the test, roots of the tomato seedling were removed from the cone and evaluated for galling on a rating scale relative to the untreated control as follows: • 1- severe galling, equal t untreated control • 3- light galling • 4- very light galling • 5- no galling, ie, complete control

The test system of experiment [2] is Heliothis virescens. Kind of experiment: Tobacco budworm - contact evaluation (topical application). Conditions: topical or contact tests; application dose of 63 µg/g body weight. As for the experimental part:
For tobacco budworm contact tests, a stock solution was prepared by dissolving the compound in acetone and then further diluted to provide the required serial dilution concentrations.
Tobacco budworm - contact evaluation: The following topical application method provides an assessment of contact toxicity of a compound to tobacco budworm larvae The test compound solution at sequential two-fold dilution concentrations from 10 down to 0.16 µg/µl was applied by a microinjector in repli cated 1 µl portions to the dorsum of approximately 20 mg tobacco budworm larvae. This is equivalent to applied doses of 500 down to 8 µg/g body weight. An acetone treated control, without any test compounds, as also applied. A treated control with a commercial technical compound, cypermethrin or thiodicarb, also in acetone was used as a standard. The treated larvae were placed, individually, in separate plastic petri dishes containing an untreated cotton leaf and a moist dental wick. The treated larvae were maintained at about 27°C and 50% relative humidity. The percent mortality was rated 1 and 4 days after treatment.

Another experiment has as its system Tetranychus urticae. Kind of experiment: Twospotted spider mite test (foliar, 100 ppm). Conditions: foliar bait tests. As for the experimental part: For mite, aphid, southern armyworm, Mexican bean beetle, and tobacco budworm tests, a solution or suspension was prepared by adding 10 mg of the test compound to a solution of 160 mg of dimethylformamide, 838 mg of acetone, 2 mg of a 3:1 ratio of Triton X-172 : Triton X-152 (respectively, mainly anionic and nonionic low foam emulsifiers which are each anhydro us blends of alkylaryl polyether alcohols with organic sulfonates), and 98.99 g of water. The result was a concentration of 100 ppm of the test compound.
Twospotted spider mite: Leaves infested with adult and nymphal stages of the two-spotted spider mite, obtained from a stock culture were placed on the primary leaves of two bean plants growing in a 6 cm. peat pot. A sufficient number of mites (150-200) for testing were transferred to the fresh plants within a period of twenty-four hours. The potted plants (one pot per compound) were placed on a revolving turntable and sprayed, sufficient to wet the plants to runoff, with 100 ml of the 100 ppm test compound formulation by use of a DeVilbiss spray gun set at 40 psig. air pressure. As an untreated control, 100 ml of the water-acetone-DMF-emulsifier solution, containing no test compound, were also sprayed on infested plants. A treated control with a commercial technical compound, either dicofol or hexythiazox, formulated in the same manner, was tested as a standard. […]

The test system of experiment [3] is Spodoptera eridania. Kind of experiment: Southern armyworm on tomato - systemic evaluation. Conditions: systemic via root uptake; 6.6 ppm soil concentration; foliage excised 21 days after treatment, larvae examined after about 5 days. How it is done:
For southern root-knot nematod and systemic tests for southern armyworm, cotton aphid, tobacco budworm and greenbug, a stock solution or suspension was prepared by adding 15 mg of the test compound to 250 mg of dimethylformamide, 1250 mg of acetone and 3 mg of the emulsifier blend referenced above. Water was then added to provide a test compound concentration of 150 ppm. When necessary, sonication was provided to insure complete dispersion. Southern armyworm on tomato - systemic evaluation: This test was conducted in conjunction with the southern root-knot nematode evaluation (discussed below). The tomato plants, grown in the soil (at an initial compound test screening rate of 6.6 ppm soil concentration or about 150 ppm solution concentration) for nematode evaluation, were then utilized for evaluation of a compound's uptake via roots and subsequent systemic transport to the tomato foliage. At the termination of the nematode test, 21 days after treatment, the tomato foliage was excised, placed into a plastic container, and infested with second instar larvae of southern armyworm. After about 5 days, the larvae were examined for percent mortality.

Experiment [4] concerns Spodoptera eridania. Put plainly: Southern armyworm on sorghum - systemic evaluation (soil drench). Conditions: systemic via root uptake, 20 ppm soil concentration dose (and subsequent dilutions), six days. How it is done: Cotton aphid and southern armyworm (on cotton) and greenbug and southern armyworm (on sorghum) - systemic evaluation: A stock solution or suspension was prepared to deliver 5 ml of a 20 ppm soil concentration dose (and subsequent dilutions) as a drench to 6 cm pots containing cotton and sorghum plants. The cotton plants were previously infested with cotton aphids about two days before treatment and greenbug one day before treatment. After holding the plants about three days, the plants were rated for aphid activity. Again at six days, the plants were rated for aphid activity and the cotton aphids and greenbugs were counted and mortality was assessed. Portions of the cotton and sorghum foliage were excised, placed in separate plastic containers, and infested with second instar larvae of southern armyworms. The potted plants were dipped in sulfotepp to kill the remaining aphids and returned to the greenhouse for regrowth. Thirteen days after treatment the remaining foliage was excised and fed to southern armyworm. Mortality was assessed six days after infestation.

Experiment [5] concerns Spodoptera eridania. Kind of experiment: Southern armyworm on oats - seed treatment evaluation. Conditions: 1.0 wt. % on oat seeds. How it is done: Cotton aphid and southern armyworm (on cotton and oats) - seed treatment evaluation: Technical material was applied to the seed of oats and cotton by placing the compound and the seed in an appropriate sized jar and rolling the jar on a ball mill. Assay of the material applied to the seed was by weight. Seed was then planted. When germinated and emerged, the plants were infested at the appropriate intervals with host insects. Mortality was assessed on those insects.

Turning to `N#Cc1nn(-c2c(Cl)cc(C(F)(F)F)cc2Cl)c(N=Cc2ccc(O)cc2O)c1SC(F)(F)F` [compound 17], the “control of greenbug after six days on sorghum” value (shortened to “control of greenbug”) with Schizaphis graminum is reported as 30-100%. Further, the “control of cotton aphid after six days on cotton” value (from here on “control of cotton aphid”) in the experiment on Aphis gossypii is given as 30-100%. Also, the “control of tobacco budworm after six days on sorghum” value with Heliothis virescens [1] amounted to 100%.

As for `Cc1cc(C=Nc2c(SC(F)(F)F)c(C#N)nn2-c2c(Cl)cc(C(F)(F)F)cc2Cl)ccc1O` [compound 19], the “control of greenbug” value in the experiment on Schizaphis graminum is 30-100%. Besides, the “control of cotton aphid” value in the experiment on Aphis gossypii is 30-100%. The “control of tobacco budworm after six days on sorghum” value in the experiment with Heliothis virescens [1] stood at 100%.

Consider `N#Cc1nn(-c2c(Cl)cc(C(F)(F)F)cc2Cl)c(N=Cc2cccs2)c1SC(F)(F)F` [compound 7], for which the “ED3 value on SRKN larvae” value with Meloidogyne incognita was “about 21 kg/ha”.

As to `COc1cc(C=Nc2c(SC(F)(F)F)c(C#N)nn2-c2c(Cl)cc(C(F)(F)F)cc2Cl)cc(O)c1O` [compound 40], the “control of tobacco budworm (TBW)” value in the experiment on Heliothis virescens [2] is 50-100%. Further, the control of mites in the experiment with Tetranychus urticae is given as 30-70%.

As for `CCOc1cc(C=Nc2c([S+]([O-])C(F)(F)F)c(C#N)nn2-c2c(Cl)cc(C(F)(F)F)cc2Cl)ccc1O` (stereo not drawn) [compound 47], the control of mites in the experiment on Tetranychus urticae is reported as 30-70%.

With `COc1cc(C=Nc2c([S+]([O-])C(F)(F)F)c(C#N)nn2-c2c(Cl)cc(C(F)(F)F)cc2Cl)ccc1O` (stereo not drawn) [compound 10, 1-(2,6-dichloro-4-trifluoromethylphenyl)-3-cyano-4-trifluoromethylsulfinyl-5-[(4-hydroxy-3-methoxyphenyl)methylideneimino]pyrazole], the “control of southern armyworm on tomato” value in the experiment with Spodoptera eridania [3] is listed as 50-100%. Further, the “control of southern armyworm after six days on sorghum” value in the experiment with Spodoptera eridania [4] is listed as 30-100%. Further, the “ED3 value on SRKN larvae” value with Meloidogyne incognita was “about 21 kg/ha”.

Turning to `N#Cc1nn(-c2c(Cl)cc(C(F)(F)F)cc2Cl)c(N=Cc2cc[n+]([O-])cc2)c1SC(F)(F)F` [compound 18, 1-(2,6-dichloro-4-trifluoromethylphenyl)-3-cyano-4-trifluoromethylsulfenyl-5-[(4-pyridyl-N-oxide)methylideneimino]pyrazole], the “control of greenbug” value in the experiment with Schizaphis graminum is 30-100%. Besides, the “control of cotton aphid” value in the experiment with Aphis gossypii was 30-100%. For the same compound, the “control of tobacco budworm after six days on sorghum” value in the experiment with Heliothis virescens [1] came to 100%.

In the case of `N#Cc1nn(-c2c(Cl)cc(C(F)(F)F)cc2Cl)c(N=Cc2ccncc2)c1SC(F)(F)F` [compound 16, 1-(2,6-dichloro-4-trifluoromethylphenyl)-3-cyano-4-trifluoromethylsulfenyl-5-[(4-pyridyl)-methylideneimino]pyrazole], the “control of greenbug” value with Schizaphis graminum is 30-100%. In addition, the “control of cotton aphid” value in the experiment with Aphis gossypii is 30-100%. Also, the “control of tobacco budworm after six days on sorghum” value in the experiment with Heliothis virescens [1] worked out at 100%.

Consider `COc1cc(C=Nc2c(SC(F)(F)F)c(C#N)nn2-c2c(Cl)cc(C(F)(F)F)cc2Cl)ccc1O` [CMPD NO. 2, 1-(2,6-dichloro-4-trifluoromethylphenyl)-3-cyano-4-trifluoromethylsulfenyl-5-[(4-hydroxy-3-methoxyphenyl)methylideneimino]pyrazole], for which, in the experiment on Spodoptera eridania [5], the “control of southern armyworm after six days” value worked out at 100%. In addition, the “control of southern armyworm after six days on sorghum” value in the experiment on Spodoptera eridania [4] is on record as 30-100%.
